Reference: publication PMC6792352, “Limited Chemical Structural Diversity Found to Modulate Thyroid Hormone Receptor in the Tox21 Chemical Library” (Environmental Health Perspectives, 2019)
Structures can show the parent of a compound that is named as a salt.

Assay: in vitro
Conditions: rat, gh3-tre-luc cells, AC50 (uM) modified / 1000
In the case of O=C1CCc2ccccc2O1 [3,4-Dihydrocoumarin], the CC50 at 24 h is reported as greater than 90 µM.
For CC(C)(N)C#N [2-Amino-2-methylpropionitrile], the CC50 at 24 h was greater than 90 µM.
Cc1ccc(OC(=O)CC(C)C)cc1 [4-Methylphenyl 3-methylbutanoate] gave a CC50 at 24 h greater than 90 µM.
Work on c1ccc(CSCc2ccccc2)cc1 [Benzyl sulfide] yielded a CC50 at 24 h greater than 90 µM.
With CS(=O)(=O)OCCCCOS(C)(=O)=O [Busulfan] the CC50 at 24 h was greater than 90 µM.
Work on CC(/C=C1\SC(=S)N(CC(=O)O)C1=O)=C\c1ccccc1 [Epalrestat] yielded a CC50 at 24 h of 42.6 µM.
With CCCCCCCCCCCCCCNCCO [Myralact] the CC50 at 24 h was greater than 50 µM.
Molecule O=Cc1ccccc1O [Salicylaldehyde] has a CC50 at 24 h greater than 90 µM.
Work on COc1ccccc1OCC1CNC(=O)O1 (centres unmarked) [Mephenoxalone] yielded a CC50 at 24 h greater than 50 µM.
Molecule CCN(CC)CCOc1ccc(Cc2ccccc2)cc1 [Tesmilifene] has a CC50 at 24 h of 10.9 µM.
N#Cc1cc2ccccc2c2ccccc12 [9-Cyanophenanthrene] gave a CC50 at 24 h greater than 90 µM.
With C[C@H]1O[C@@H](O[C@H]2[C@@H](O)C[C@H](O[C@H]3[C@@H](O)C[C@H](O[C@H]4CC[C@@]5(C)[C@H](CC[C@@H]6[C@@H]5CC[C@]5(C)[C@@H](C7=CC(=O)OC7)CC[C@]65O)C4)O[C@@H]3C)O[C@@H]2C)C[C@H](O)[C@@H]1O [Digitoxin] the CC50 at 24 h was greater than 60 µM.
NCCN [Ethylenediamine] gave a CC50 at 24 h greater than 90 µM.
With COc1cc(C[C@@H](C)N)c(OC)cc1C [R-(-)-2,5-Dimethoxy-4-methylamphetamine hydrochloride] the CC50 at 24 h was 41.9 µM.
With CN(C)[C@@H]1C(=O)C(C(N)=O)=C(O)[C@@]2(O)C(=O)C3=C(O)c4c(O)cccc4[C@@](C)(O)[C@H]3[C@H](O)[C@@H]12 [Oxytetracycline] the CC50 at 24 h was greater than 90 µM.
Molecule CN1CCC(=C2c3ccccc3CC(=O)c3sccc32)CC1 [Ketotifen] has a CC50 at 24 h of 16 µM.
With CC1(C)S[C@@H]2[C@H](NC(=O)C(C(=O)O)c3ccccc3)C(=O)N2[C@H]1C(=O)O (some centres unmarked) [Carbenicillin disodium] the CC50 at 24 h was greater than 50 µM.
Molecule CNCc1ccc(NC(=O)c2c[nH]c3c2C(=O)CCC3)cc1 [CP-409092] has a CC50 at 24 h greater than 90 µM.
Work on CN(C)c1ccc(O)c2c1C[C@H]1C[C@H]3[C@H](N(C)C)C(O)=C(C(N)=O)C(=O)[C@@]3(O)C(O)=C1C2=O [Minocycline hydrochloride] yielded a CC50 at 24 h greater than 90 µM.
Molecule CCCCCCC=O [Heptanal] has a CC50 at 24 h greater than 90 µM.
With C[C@@H]1C/C=C/C=C/C=C/C=C/[C@H](O[C@@H]2O[C@H](C)[C@@H](O)[C@H](N)[C@@H]2O)C[C@@H]2O[C@](O)(C[C@@H](O)C[C@H]3O[C@@H]3/C=C/C(=O)O1)C[C@H](O)[C@H]2C(=O)O [Natamycin] the CC50 at 24 h was greater than 50 µM.
For CCCc1ccc(O)c(OC)c1 [2-Methoxy-4-propylphenol], the CC50 at 24 h was greater than 90 µM.
O=S(O)CO [Hydroxymethanesulfinic acid monosodium salt dihydrate] gave a CC50 at 24 h greater than 50 µM.
Molecule CC(=O)NCc1c(I)c(NC(C)=O)c(I)c(C(=O)O)c1I [Iodamide] has a CC50 at 24 h greater than 50 µM.
For CC12CCC(CC1)C(C)(C)O2 [1,8-Cineol], the CC50 at 24 h was greater than 90 µM.
NC1CCCCC1 [Cyclohexylamine hydrochloride] showed a CC50 at 24 h greater than 90 µM.
Work on CCCCC/C(=C\c1ccccc1)CO [alpha-Amylcinnamyl alcohol] yielded a CC50 at 24 h of 46.6 µM.
CCc1ccc(C)cc1 [4-Ethyltoluene] showed a CC50 at 24 h greater than 90 µM.
O=C(O)c1cc(Cl)cc([N+](=O)[O-])c1Cl [2,5-Dichloro-3-nitrobenzoic acid] showed a CC50 at 24 h greater than 90 µM.
With CCCCCCCCOc1ccc(C(=O)c2ccccc2)c(O)c1 [Octabenzone] the CC50 at 24 h was greater than 90 µM.
In the case of C=CC(C)(C)CC(=O)OC [Methyl 3,3-dimethylpent-4-enoate], the CC50 at 24 h is reported as greater than 90 µM.
With O=C1c2ccccc2Cc2ccccc21 [Anthrone] the CC50 at 24 h was 13.5 µM.
CNC(=O)Oc1cccc2ccccc12 [Carbaryl] gave a CC50 at 24 h greater than 90 µM.
With CCNc1nc(Cl)nc(NC(C)C)n1 [Atrazine] the CC50 at 24 h was greater than 90 µM.
CN(CCOc1ccc(CC2SC(=O)NC2=O)cc1)c1ccccn1 (centres unmarked) [Rosiglitazone maleate] gave a CC50 at 24 h greater than 90 µM.
Work on CCC1(c2ccc(N)cc2)CCC(=O)NC1=O (centres unmarked) [Aminoglutethimide] yielded a CC50 at 24 h greater than 50 µM.
In the case of CCC(=O)OC(=O)CC [Propanoic anhydride], the CC50 at 24 h is reported as greater than 90 µM.
In the case of CC(C)(CO)C(O)C(=O)NCCCO (centres unmarked) [Panthenol], the CC50 at 24 h is reported as greater than 90 µM.
CCc1cc(SCc2sc(-c3ccc(C(F)(F)F)cc3)nc2CN2CCN(c3ccc(OC)cc3)CC2)ccc1OCC(=O)O [PharmaGSID_47315] showed a CC50 at 24 h of 22.4 µM.
Brc1ccc(-c2ccccc2)cc1 [4-Bromobiphenyl] gave a CC50 at 24 h greater than 90 µM.
Molecule N=C(N)N/N=C/c1c(Cl)cccc1Cl [Guanabenz] has a CC50 at 24 h of 20.8 µM.
With COS(=O)(=O)C(F)(F)F [Methyl trifluoromethanesulfonate] the CC50 at 24 h was greater than 100 µM.
In the case of O=C(O)CC(C(=O)O)S(=O)(=O)O (centres unmarked) [Sulfosuccinic acid], the CC50 at 24 h is reported as greater than 90 µM.
For CC(C)COC(=O)COc1cc(Cl)c(Cl)cc1Cl [Isobutyl (2,4,5-trichlorophenoxy)acetate], the CC50 at 24 h was greater than 90 µM.
For O=C(NO)c1ccccc1 [N-Hydroxybenzamide], the CC50 at 24 h was greater than 90 µM.
Molecule CN1CCN(CCCN2c3ccccc3Sc3ccc(S(=O)(=O)N(C)C)cc32)CC1 [Thioproperazine dimethanesulfonate] has a CC50 at 24 h of 14.2 µM.
In the case of Cc1cccc(C(=O)O)c1 [3-Methylbenzoic acid], the CC50 at 24 h is reported as greater than 90 µM.
CCC(=O)c1ccc2c(c1)N(CCCN1CCN(CCO)CC1)c1ccccc1S2 [Carphenazine dimaleate] gave a CC50 at 24 h of 6.82 µM.
With CN(C)CCc1c[nH]c2ccc(C[C@H]3COC(=O)N3)cc12 [Zolmitriptan] the CC50 at 24 h was greater than 50 µM.
CC(=O)c1ccccc1O [2-Hydroxyacetophenone] showed a CC50 at 24 h greater than 90 µM.
For COC(C)(C)CCC[C@H](C)C/C=C/C(C)=C/C(=O)OC(C)C [S-Methoprene], the CC50 at 24 h was 70.9 µM.
CCOC(=O)c1ncn2c1CN(C)C(=O)c1cc(F)ccc1-2 [Flumazenil] gave a CC50 at 24 h greater than 50 µM.
In the case of OCC(CBr)(CBr)CBr [3-Bromo-2,2-bis(bromomethyl)propanol], the CC50 at 24 h is reported as greater than 90 µM.
For CC1=C(C(=O)Nc2ccccc2)S(=O)(=O)CCO1 [Oxycarboxin], the CC50 at 24 h was 40.7 µM.
With CCCCCCCCCCOCC(O)CN (centres unmarked) [Decominol hydrochloride] the CC50 at 24 h was 6.25 µM.
COc1ccc2c3c1O[C@H]1C(=O)CC[C@H]4[C@@H](C2)N(C)CC[C@]314 [Hydrocodone phosphate (2:3) monohydrate] gave a CC50 at 24 h greater than 50 µM.
In the case of CCCCCCCCCCCCCO [1-Tridecanol], the CC50 at 24 h is reported as greater than 90 µM.
In the case of CSCC[C@H](NC(=O)[C@H](Cc1c[nH]c2ccccc12)NC(=O)CCNC(=O)OC(C)(C)C)C(=O)N[C@@H](CC(=O)O)C(=O)N[C@@H](Cc1ccccc1)C(N)=O [Pentagastrin], the CC50 at 24 h is reported as greater than 50 µM.
Molecule COc1ccnc(C[S+]([O-])c2nc3ccc(OC(F)F)cc3[nH]2)c1OC (centres unmarked) [Pantoprazole sodium] has a CC50 at 24 h greater than 90 µM.
Work on COC(=O)/C=C\C(=O)O [2-Butenedioic acid (2Z)-, monomethyl ester] yielded a CC50 at 24 h greater than 90 µM.
For Cc1cn([C@H]2C[C@H](O)[C@@H](CO)O2)c(=O)[nH]c1=O [Thymidine], the CC50 at 24 h was greater than 50 µM.
Work on CCCCCc1cccc(=O)o1 [6-Pentyl-2H-pyran-2-one] yielded a CC50 at 24 h greater than 90 µM.
NS(=O)(=O)c1cc2c(cc1Cl)NC(Cc1ccccc1)NS2(=O)=O (centres unmarked) [Benzylhydrochlorothiazide] gave a CC50 at 24 h greater than 50 µM.
Work on OC[C@H]1O[C@H](O[C@H]2O[C@H](CO)[C@@H](O)[C@H](O)[C@H]2O)[C@H](O)[C@@H](O)[C@@H]1O [Trehalose dihydrate] yielded a CC50 at 24 h greater than 90 µM.
C[C@@H]1CCC[C@H](C)N1NC(=O)c1ccc(Cl)c(S(N)(=O)=O)c1 [Clopamide] gave a CC50 at 24 h greater than 20 µM.
In the case of Clc1ccc2cc3ccccc3cc2c1 [2-Chloroanthracene], the CC50 at 24 h is reported as greater than 90 µM.
Cc1ccc(O)c(N)c1 [2-Amino-4-methylphenol] showed a CC50 at 24 h of 33.5 µM.
Work on CCN(CC)CCOC(=O)C(c1ccccc1)c1ccccc1 [Adiphenine hydrochloride] yielded a CC50 at 24 h of 43.3 µM.
For CC1(C)[C@H](C(=O)O)N2C(=O)C[C@H]2S1(=O)=O [Sulbactam], the CC50 at 24 h was greater than 50 µM.
Molecule CC(C)(C)C(=O)/C=C/c1ccc(Cl)cc1 [1-(4-Chlorophenyl)-4,4-dimethylpent-1-en-3-one] has a CC50 at 24 h greater than 90 µM.
Work on CC1=C(/C=C/C(C)=C/C=C/C(C)=C/C=O)C(C)(C)CCC1 [Retinal] yielded a CC50 at 24 h of 12.4 µM.
In the case of CC(C)/N=c1\cc2n(-c3ccc(Cl)cc3)c3ccccc3nc-2cc1Nc1ccc(Cl)cc1 [Clofazimine], the CC50 at 24 h is reported as 5.75 µM.
In the case of O=C(O)P(=O)(O)O [Foscarnet trisodium], the CC50 at 24 h is reported as greater than 50 µM.
N#CCCN(CCO)CCO [3-[Bis(2-hydroxyethyl)amino]propanenitrile] showed a CC50 at 24 h greater than 90 µM.
Nc1nc(N)nc(N)n1 [Melamine] showed a CC50 at 24 h greater than 90 µM.

Same assay, conditions: rat, gh3-tre-luc cells, AC50 (uM) modified / 1000, Tox21_110001=Tox21_111833; viability, 1 nM T3 present, 24 h
With c1csc(C2(N3CCCCC3)CCCCC2)c1 [Tenocyclidine] the CC50 at 24 h was greater than 50 µM.

Same assay, conditions: rat, gh3-tre-luc cells, AC50 (uM) modified / 1000, Tox21_110001=Tox21_200069; viability, 1 nM T3 present, 24 h
With CC(=O)NNc1ccccc1 [1-Acetyl-2-phenylhydrazine] the CC50 at 24 h was 7.15 µM.

Same assay, conditions: rat, gh3-tre-luc cells, AC50 (uM) modified / 1000, Tox21_110001=Tox21_201141; viability, 1 nM T3 present, 24 h
For ClC(Cl)C(Cl)(Cl)Cl [Pentachloroethane], the CC50 at 24 h was greater than 90 µM.

Same assay, conditions: rat, gh3-tre-luc cells, AC50 (uM) modified / 1000, Tox21_110001=Tox21_201217; viability, 1 nM T3 present, 24 h
In the case of O=Cc1ccc(Cl)cc1Cl [2,4-Dichlorobenzaldehyde], the CC50 at 24 h is reported as greater than 90 µM.

Same assay, conditions: rat, gh3-tre-luc cells, AC50 (uM) modified / 1000, Tox21_110001=Tox21_201505; viability, 1 nM T3 present, 24 h
Work on C1CC2OC2CC1C1CO1 (centres unmarked) [4-Vinyl-1-cyclohexene dioxide] yielded a CC50 at 24 h greater than 90 µM.

Same assay, conditions: rat, gh3-tre-luc cells, AC50 (uM) modified / 1000, Tox21_110001=Tox21_202343; viability, 1 nM T3 present, 24 h
With CCOP(=S)(OCC)SCCSCC [Disulfoton] the CC50 at 24 h was greater than 90 µM.

Same assay, conditions: rat, gh3-tre-luc cells, AC50 (uM) modified / 1000, Tox21_110001=Tox21_202582; viability, 1 nM T3 present, 24 h
Molecule Nc1c(Br)cc(Br)c2c1C(=O)c1ccccc1C2=O [1-Amino-2,4-dibromoanthraquinone] has a CC50 at 24 h greater than 20 µM.

Same assay, conditions: rat, gh3-tre-luc cells, AC50 (uM) modified / 1000, Tox21_110001=Tox21_300861; viability, 1 nM T3 present, 24 h
In the case of CCOP(=S)(OCC)SCCSCC [Disulfoton], the CC50 at 24 h is reported as greater than 40 µM.
